This is an account of results in PMC1839085, “Crystal structures of an Extracytoplasmic Solute Receptor from a TRAP transporter in its open and closed forms reveal a helix-swapped dimer requiring a cation for α-keto acid binding” (BMC Structural Biology, 2007).

The target of this test is T1, TakP (Cereibacter sphaeroides, UniProt Q3J1R2).
T1 construct: His6 (C); made in house; host or cells: E. coli BL21
In words: Tryptophan fluorescence quenching titration of ligand binding to TakP. Details: species or system Rhodobacter sphaeroides. The settings on record: for Binding to purified proteins from the SmoM family (qualitative): purified proteins from the SmoM (TakP) family, stated as [15] and this study, method not specified. The source says:
We overexpressed and purified TakP from Rhodobacter sphaeroides and confirmed its ability to bind a range of α-keto acids. A general feature of ESRs is that substrate binding is accompanied by a diminished fluorescence from some tryptophan residue(s) as a result of the conformational changes induced by the binding. […] This was accompanied by a shift of the emission peak: the difference spectrum between the unliganded and liganded (quenched) protein has its maximum around 345 nm, whereas the bulk fluorescence from the unliganded form peaks at 335 nm. […] There are 10 Trp residues in the TakP sequence. From the structural information describe below, it turned out that one of these Trp residues (Trp 215) is directly interacting with the ligand when present, so that its fluorescence may be strongly quenched as a result. Two others undergo a significant displacement during the open/closed transition, which may also affect their fluorescence properties. Clearly, the observed amplitude of the fluorescence quenching caused by ligand binding (~30%) implies that these sensitive residues have for some reason a larger relative contribution to the fluorescence emission than the other tryptophans of the protein.
Because of the high binding affinity of these, we had to use a sufficiently low protein concentration to obtain an accurate determination of the dissociation constant, Kd. If the protein concentration is below the Kd, allowing the presence of a significant fraction of free substrate during the titration, the Kd can be determined from a fit of the equation:
F/F0=1−ΔF×[PL]=1−ΔF×0.5(Kd+[P0]+[L0]−(Kd+[P0]+[L0])^2−4[P0][L0]) MathType@MTEF@5@5@+=feaafiart1ev1aaatCvAUfKttLearuWrP9MDH5MBPbIqV92AaeXatLxBI9gBaebbnrfifHhDYfgasaacH8akY=wiFfYdH8Gipec8Eeeu0xXdbba9frFj0=OqFfea0dXdd9vqai=hGuQ8kuc9pgc9s8qqaq=dirpe0xb9q8qiLsFr0=vr0=vr0dc8meaabaqaciaacaGaaeqabaqabeGadaaakeaacqWGgbGrcqGGVaWlcqWGgbGrdaWgaaWcbaGaeGimaadabeaakiabg2da9iabigdaXiabgkHiTiabfs5aejabdAeagjabgEna0kabcUfaBjabdcfaqjabdYeamjabc2faDjabg2da9iabigdaXiabgkHiTiabfs5aejabdAeagjabgEna0kabicdaWiabc6caUiabiwda1maabmaabaGaem4saS0aaSbaaSqaaiabdsgaKbqabaGccqGHRaWkcqGGBbWwcqWGqbaudaWgaaWcbaGaeGimaadabeaakiabc2faDjabgUcaRiabcUfaBjabdYeamnaaBaaaleaacqaIWaamaeqaaOGaeiyxa0LaeyOeI0YaaOaaaeaacqGGOaakcqWGlbWsdaWgaaWcbaGaemizaqgabeaakiabgUcaRiabcUfaBjabdcfaqnaaBaaaleaacqaIWaamaeqaaOGaeiyxa0Laey4kaSIaei4waSLaemitaW0aaSbaaSqaaiabicdaWaqabaGccqGGDbqxcqGGPaqkdaahaaWcbeqaaiabikdaYaaakiabgkHiTiabisda0iabcUfaBjabdcfaqnaaBaaaleaacqaIWaamaeqaaOGaeiyxa0Laei4waSLaemitaW0aaSbaaSqaaiabicdaWaqabaGccqGGDbqxaSqabaaakiaawIcacaGLPaaaaaa@7441@
Here, F is the fluorescence amplitude and F0 its value in the absence of ligand. Δ F is the normalized amplitude of the saturated quenching, [PL] is the concentration of liganded protein, [P0] and [L0] are the concentrations of the total protein and ligand, respectively. The protein concentration was determined from its 280 nm absorbance and pertains here to the monomeric unit (see below).
Fluorescence spectroscopy was performed using a Varian Cary Eclipse spectrofluorimeter with an excitation wavelength of 290 nm. The emission spectra were recorded between 300 and 500 nm. Ligand binding was determined from the partial quenching of this fluorescence emission. To gain a more accurate determination of the dissociation constant, the protein concentration was lowered down to 50 nM (in 50 mM Tris/HCl, pH 7) and the amplitude of the fluorescence emission was computed from an integration of the emission over the 315 nm to 360 nm range.

For orientation: Kd means the equilibrium constant for the complex coming apart. Lower therefore signals tighter binding.

T1 sequence (Q3J1R2 27-365): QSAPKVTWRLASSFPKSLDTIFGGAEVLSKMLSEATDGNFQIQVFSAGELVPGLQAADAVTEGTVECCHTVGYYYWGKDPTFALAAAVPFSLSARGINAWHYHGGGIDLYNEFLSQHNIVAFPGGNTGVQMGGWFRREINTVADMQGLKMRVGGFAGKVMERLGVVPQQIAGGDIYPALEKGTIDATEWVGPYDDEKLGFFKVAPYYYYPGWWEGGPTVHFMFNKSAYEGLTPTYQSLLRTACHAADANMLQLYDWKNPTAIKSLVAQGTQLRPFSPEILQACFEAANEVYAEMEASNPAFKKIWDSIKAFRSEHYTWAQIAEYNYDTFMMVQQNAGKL

`CCC(=O)C(=O)O` [Oxobutyrate, oxobutyrate] had a Kd of 43 ± 4 nM. `OC[C@@H](O)[C@@H](O)[C@H](O)[C@H](O)CO` [mannitol]: the “Binding to purified proteins from the SmoM family (qualitative)” value was “neither bind”. As to `OC[C@@H](O)[C@@H](O)[C@H](O)[C@@H](O)CO` [sorbitol], the “Binding to purified proteins from the SmoM family (qualitative)” value is “neither bind”. Consider `O=C(O)CCC(=O)C(=O)O` [α-ketoglutarate], for which, under “fluorescence quenching titration”, the “Binding to TakP (qualitative)” value is “No binding”.

`CC(C)CC(=O)C(=O)O` [4-Methyl-2-Oxovalerate] came in with an equilibrium dissociation constant (Kd) of 720 ± 55 nM.

With `CCCC(=O)C(=O)O` [Oxovalerate, oxovalerate], the dissociation constant (Kd) turned out to be 18 ± 3 nM. Take `CC(=O)C(=O)O` [Pyruvate, pyruvate]: the Kd was 270 ± 20 nM.
